Usually inhibition stands for how much of the control response was suppressed. For orientation: pIC50 means the IC50 on a negative log10 scale, so that one unit is a factor of ten. Read a low pIC50 as a large IC50.

This note sets out measurements from ChEMBL document CHEMBL1147517, “Potent and selective inhibitors of bacterial methionyl tRNA synthetase derived from an oxazolone-dipeptide scaffold” (Bioorg Med Chem Lett, 2004).

pIC50: −log10 of the molar value.

For assay [1], the system named is Methionine--tRNA ligase (Staphylococcus aureus). In words: Inhibition of Staphylococcus aureus methionyl-tRNA synthetase (SaMetRS) at the concentration of 10 uM.
The test system of assay [2] is Methionine--tRNA ligase (Enterococcus faecalis). The assay is described as follows: Inhibition of Enterococci faecalis methionyl-tRNA synthetase (EfMetRS) at the concentration of 10 uM.
Assay [3] has as its target T1, Methionine--tRNA ligase, cytoplasmic (Homo sapiens) (UniProt P56192).
T1 sequence (whole entry): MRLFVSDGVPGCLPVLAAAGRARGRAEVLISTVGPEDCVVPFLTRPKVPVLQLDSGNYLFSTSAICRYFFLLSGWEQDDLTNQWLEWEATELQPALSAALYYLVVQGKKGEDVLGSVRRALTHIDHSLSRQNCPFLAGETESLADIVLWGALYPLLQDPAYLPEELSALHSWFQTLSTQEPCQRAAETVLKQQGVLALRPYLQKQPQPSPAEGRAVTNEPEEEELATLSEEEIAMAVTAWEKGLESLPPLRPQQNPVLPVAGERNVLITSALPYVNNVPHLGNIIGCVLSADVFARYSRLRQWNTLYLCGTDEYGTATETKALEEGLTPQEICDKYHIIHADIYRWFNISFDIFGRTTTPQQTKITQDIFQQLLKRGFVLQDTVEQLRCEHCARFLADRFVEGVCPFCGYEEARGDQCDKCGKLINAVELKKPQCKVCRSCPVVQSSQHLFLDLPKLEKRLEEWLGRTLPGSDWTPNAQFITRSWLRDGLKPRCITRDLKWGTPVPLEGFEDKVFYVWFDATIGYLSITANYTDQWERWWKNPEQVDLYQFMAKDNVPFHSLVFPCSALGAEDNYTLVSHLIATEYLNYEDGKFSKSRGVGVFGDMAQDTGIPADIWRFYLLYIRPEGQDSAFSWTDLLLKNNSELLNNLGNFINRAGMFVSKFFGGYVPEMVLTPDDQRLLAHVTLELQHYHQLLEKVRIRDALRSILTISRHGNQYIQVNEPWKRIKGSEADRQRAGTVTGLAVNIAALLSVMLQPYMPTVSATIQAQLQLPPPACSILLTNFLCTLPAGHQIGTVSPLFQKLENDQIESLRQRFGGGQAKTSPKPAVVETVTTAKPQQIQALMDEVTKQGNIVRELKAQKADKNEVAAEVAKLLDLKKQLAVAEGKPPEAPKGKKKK
In words: Inhibition of human methionyl-tRNA synthetase (fMetRS) at the concentration of 10 uM.

Assay [4] concerns the target T2, Methionine--tRNA ligase, cytoplasmic (Homo sapiens, UniProt P56192).
T2 sequence (P56192 whole entry): T1 sequence (whole entry)
In words: Inhibition of human methionyl-tRNA synthetase (fMetRS).

Assay [5] has as its system Methionine--tRNA ligase (Enterococcus faecalis). The assay is described as follows: Inhibition of Enterococci faecalis methionyl-tRNA synthetase (EfMetRS); Inactive.

Take `NC(=O)[C@H](Cc1ccc(O)cc1)NC(=O)C1CCCN(/C=C2\N=C(c3ccc(Cl)cc3Cl)OC2=O)C1` (some centres undefined): the inhibition turned out to be 43% in assay [1], 2% in assay [2] and 20% in assay [3].

Consider `NC(=O)[C@H](Cc1ccc(O)cc1)NC(=O)C1CCCCN1/C=C1\N=C(c2ccc(Cl)cc2Cl)OC1=O` (some centres undefined), for which the figures for the inhibition in assay [1], in assay [2] and in assay [3] were 73%, 60% and 88%, respectively.

As to `NC(=O)[C@H](Cc1ccc(O)cc1)NC(=O)C1CCN(/C=C2\N=C(c3ccc(Br)cc3)OC2=O)CC1`, the values for the inhibition in assay [1], in assay [2] and in assay [3] were 1%, 7% and 6%, respectively.

Regarding `CC/C(=C1/N=C(c2ccc(Br)cc2)OC1=O)N1CCC[C@H]1C(=O)N[C@@H](Cc1ccc(O)cc1)C(N)=O`, the pIC50 in assay [4] was < 4.00.

As to `CCC/C(=C1/N=C(c2ccc(Br)cc2)OC1=O)N1CCC[C@H]1C(=O)N[C@@H](Cc1ccc(O)cc1)C(N)=O`, the pIC50 in assay [4] is < 4.00.

`NC(=O)[C@H](Cc1ccc(O)cc1)NC(=O)[C@@H]1CCCN1/C=C1\N=C(c2ccc(Br)cc2)OC1=O` registered an inhibition in assay [3] of 5%.

Turning to `NC(=O)[C@H](Cc1ccc(O)cc1)NC(=O)C1CCCCN1/C=C1\N=C(c2ccc(Br)cc2)OC1=O` (some centres undefined), the inhibition turned out to be 55% in assay [1], 7% in assay [2] and 19% in assay [3].

On to `NC(=O)[C@H](Cc1ccc(O)cc1)NC(=O)[C@@H]1CCN1/C=C1\N=C(c2ccc(Br)cc2)OC1=O`, for which the pIC50 in assay [4] was < 4.00.

For `NC(=O)[C@H](Cc1ccc(O)cc1)NC(=O)C1CCN(/C=C2\N=C(c3ccc(Cl)cc3Cl)OC2=O)CC1`, the inhibition in assay [1] was determined as 3%; in assay [2], 5%; in assay [3] it was 5%.

`NC(=O)[C@H](Cc1ccc(O)cc1)NC(=O)C1CCCN(/C=C2\N=C(c3ccc(Br)cc3)OC2=O)C1` (some centres undefined): the values for the inhibition in assay [1] and in assay [3] were 39% and 23%, respectively. In addition, in assay [5], the IC50 result was “Not Active”.

As for `NC(=O)[C@H](Cc1ccc(O)cc1)NC(=O)[C@@H]1CCCN1/C=C1\N=C(c2ccc(Cl)cc2Cl)OC1=O`, the pIC50 in assay [4] was < 4.00.

With `CCC/C(=C1/N=C(c2ccc(Br)cc2)OC1=O)N1CC[C@H]1C(=O)N[C@@H](Cc1ccc(O)cc1)C(N)=O`, in assay [4], the pIC50 is < 4.00.
